Experimental data published in patent US10588952B2, “Conjugate vaccine using trimming function of ERAP1” (SUMITOMO DAINIPPON PHARMA CO., LTD., priority 2013, dated 2020).
≈ marks a conversion by molar mass, not a printed value. Blank lines part the entries; values can stand above or below the compound they belong to. Bridge positions count the residues as written; N and C are the ends. Peptide text beside a SMILES is read from it. I, II: the chains in the order shown.

Assays:
[1] = system: HLA-A0201 transgenic mouse; assay: In vivo CTL induction ability, IFNγ ELISPOT, formula (11) (Experimental Example 13); conditions: 250 μg/site with IFA, 17 hr
Method: The compound represented by the formula (11) synthesized in Example 109 was evaluated for the CTL induction ability by an in vivo CTL induction test using an HLA-A0201 transgenic mouse. The compound represented by the formula (11): […]
To evaluate whether CTLs to each of the peptides (SEQ ID NOs: 19 and 88) endogenously presented by cancer cells was induced, the compound represented by the formula (11) was administered to the HLA-A0201 transgenic mouse. That is, it was determined whether IFNγ production was observed by re-stimulation, with the peptide (SEQ ID NO: 19 or 88), of the splenocyte derived from the above-mentioned mouse administered with the compound represented by the formula (11).
Specifically, the compound represented by the formula (11) was dissolved in dimethyl sulfoxide (DMSO) at 80 mg/mL, further diluted with water for injection to 10 mg/mL, and emulsified by mixing with an equal amount of incomplete Freund's adjuvant (IFA). The emulsified compound was intradermally administered to 2 sites at the base of tail of the mouse at 250 μg/site. One week later, the mouse was euthanized with CO2 gas, the spleen was isolated, and splenocytes were prepared. IFNγ ELISPOT assay kit was used for the measurement of IFNγ production. […] The number of spots that developed color was measured by ImmunoSpot Analyzer (manufactured by C.T.L.). […]

[2] = system: HLA-A0201 transgenic mouse; assay: In vivo CTL induction ability, IFNγ ELISPOT, formula (5) (Experimental Example 14); conditions: 250 μg/site with IFA, 17 hr
Method: The compound represented by the formula (5) synthesized in Example 110 was evaluated for the CTL induction ability by an in vivo CTL induction test using HLA-A0201 transgenic mouse. The compound represented by the formula (5): […]
Specifically, the compound represented by the formula (5) was dissolved in dimethyl sulfoxide (DMSO) at 80 mg/mL, further diluted with water for injection to 10 mg/mL, and emulsified by mixing with an equal amount of incomplete Freund's adjuvant (IFA). The emulsified compound was intradermally administered to 2 sites at the base of tail of the mouse at 250 μg/site. One week later, the mouse was euthanized with CO2 gas, the spleen was isolated, and splenocytes were prepared. IFNγ ELISPOT assay kit was used for the measurement of IFNγ production. On the previous day of splenocyte preparation, an ELISPOT plate was treated with an anti-mouse IFNγ antibody, and blocked with RPMI1640 medium containing 10% FBS the next day. The prepared HLA-A0201 transgenic mouse-derived splenocytes were plated at 0.25×10^6 cells/well on the blocked ELISPOT plate. […] After the culture, the supernatant was removed, and the ELISPOT plate was allowed to develop color according to the attached protocol. The number of spots that developed color was measured by ImmunoSpot Analyzer (manufactured by C.T.L.).

ERAP1 [3] = target: T1, ERAP1 (Homo sapiens, UniProt Q9NZ08); assay: Time-course changes of trimming of N-terminal amino acid by ERAP1 (Experimental Example 2); format: biochemical; conditions: peptide obtained by trimming (SEQ ID NO: 53, 43 or 19), ERAP1 solution 0.5 mg/ml, room temperature
T1 sequence (Q9NZ08 whole entry): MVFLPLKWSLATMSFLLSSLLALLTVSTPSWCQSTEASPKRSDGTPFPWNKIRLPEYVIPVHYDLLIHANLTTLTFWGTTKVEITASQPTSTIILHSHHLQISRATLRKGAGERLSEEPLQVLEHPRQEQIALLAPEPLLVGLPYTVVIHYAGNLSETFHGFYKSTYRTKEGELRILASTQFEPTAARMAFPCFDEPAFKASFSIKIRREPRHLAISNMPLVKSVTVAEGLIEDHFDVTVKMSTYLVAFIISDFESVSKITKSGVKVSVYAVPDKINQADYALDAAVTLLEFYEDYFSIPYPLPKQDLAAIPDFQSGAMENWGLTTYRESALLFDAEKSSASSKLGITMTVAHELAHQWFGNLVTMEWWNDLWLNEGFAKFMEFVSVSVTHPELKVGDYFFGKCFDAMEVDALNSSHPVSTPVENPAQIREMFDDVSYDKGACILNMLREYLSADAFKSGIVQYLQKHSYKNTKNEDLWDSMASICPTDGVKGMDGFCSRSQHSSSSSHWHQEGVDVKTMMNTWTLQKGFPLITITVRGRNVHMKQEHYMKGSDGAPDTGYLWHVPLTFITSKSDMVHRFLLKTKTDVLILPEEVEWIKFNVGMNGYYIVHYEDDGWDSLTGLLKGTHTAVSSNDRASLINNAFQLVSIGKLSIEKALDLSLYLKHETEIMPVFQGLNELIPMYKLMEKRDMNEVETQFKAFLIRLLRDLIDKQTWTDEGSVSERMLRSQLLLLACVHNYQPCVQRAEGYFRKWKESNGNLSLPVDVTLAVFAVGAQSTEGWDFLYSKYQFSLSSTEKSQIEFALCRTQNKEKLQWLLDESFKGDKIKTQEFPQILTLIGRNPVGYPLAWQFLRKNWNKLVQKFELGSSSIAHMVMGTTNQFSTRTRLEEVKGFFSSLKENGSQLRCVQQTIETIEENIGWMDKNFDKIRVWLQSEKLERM
Method: 20 μl of ERAP1 solution (0.5 mg/ml) in Tris.HCl buffer was added to 172 μl of Tris.HCl buffer. 10 mM peptide solution in DMSO (8.0 μl) was added to the aforementioned ERAP1 solution, and the mixture was blended well and stood at room temperature. […]
pump: UFLC manufactured by Shimadzu column: Shim-pack XR-ODS 3.0 mmi.d.×75 mm solution: 0.05% TFA H2O(A)-0.05% TFA CH3CN(B) […]
detection wavelength: λ=220 nm gradient: Concentration of SOLUTION B was raised from 1.0% 70% from 0.0 min to 5.0 min […]
The peptide to be obtained by the trimming of the N-terminal amino acid(s) by ERAP1 is, […]

[4] = system: HLA-A0201 transgenic mouse; assay: In vivo CTL induction ability, IFNγ ELISPOT, Cys-extended peptides (Experimental Example 3); conditions: intradermal, 2 sites, 50 μg/site with IFA; splenocytes one week later re-stimulated with Cys non-extended or Cys-extended peptide 10 μg/mL
Method: The CTL induction ability of each peptide extended by cysteine (Cys) (Cys-extended peptide) shown in Table 23 was evaluated by in vivo CTL induction test using an HLA-A0201 transgenic mouse.
HLA-A0201 transgenic mouse (C57BL/6CrHLA-A2.1DR1) is a mouse which is defective in mouse MHC, and expresses a chimera HLA of human MHC HLA-A0201 and mouse MHC H-2D^b, and HLA-DRB1*0101.
The emulsified peptide was intradermally administered to 2 sites at the base of tail of the mouse at 50 μg/site. One week later, the mouse was euthanized with CO2 gas, the spleen was isolated, and splenocytes were prepared. IFNγ ELISPOT assay kit was used for the measurement of IFNγ production. On the previous day of splenocyte preparation, an ELISPOT plate was treated with an anti-mouse IFNγ antibody, and blocked with RPMI1640 medium containing 10% FBS the next day. The prepared HLA-A0201 transgenic mouse-derived splenocytes were plated at 2.5×10^5 cells/well on the blocked ELISPOT plate. […] These splenocytes were cultivated for 20 hr at 37° C., 5% CO2, whereby peptide re-stimulation in vitro was performed. Thereafter, the supernatant was removed, and the ELISPOT plate was allowed to develop color according to the attached protocol. The number of spots that developed color was measured by KS ELISPOT.

ERAP1 [5] = target: T1, ERAP1; assay: Test of trimming of N-terminal amino acid by ERAP1 (Experimental Example 11, Examples 50, 56, 64, 67); format: biochemical; conditions: Proteinase-3 169-177 peptide obtained by ERAP1 trimming; from HPLC AUC
Method: The peptides synthesized in Examples 50, 56, 64 and 67 were evaluated for N-terminal amino acid trimming efficiency using ERAP1. 50 μl of ERAP1 solution (10 μg/ml) in pH 8.0, 20 mM Tris.HCl-100 mM NaCl buffer (Tris.HCl buffer) was added to 142 μl of Tris.HCl buffer. 10 mM peptide solution in DMSO (2.0 μl) and 6.0 μL of DMSO were added to the aforementioned ERAP1 solution, and the mixture was blended well and stood at 30° C. […] The peptide to be obtained by trimming was chemically synthesized separately, and analyzed under similar conditions in the absence of the enzyme. […]
pump: UFLC manufactured by Shimadzu […]
solution: 0.1% TFA H2O(A)-0.1% TFA CH3CN(B) […]
detection wavelength: λ=220 nm gradient: concentration of SOLUTION B was raised from 10% to 50% from 0.0 min to 8.5 min

[6] = splenocytes pulsed with SEQ ID NO: 19, 10 μg/mL

Method for physchem: To prepare a test solution, about 1 mg of a test product was measured and the isotonic buffer (0.5 mL) was added thereto. The prepared solution was shaken at room temperature for 90 min (shaking conditions: RECIPRO SHAKER SR-1N manufactured by TAITEC, Speed=8), centrifuged (15000 rpm, 5 min, room temperature), and the supernatant after centrifugation was used as a test solution.
About 1 mg of the test product was accurately measured, dissolved in 0.1% TFA water/acetonitrile=1/1, made the total amount 10 mL, and this was used as a standard solution of the test product.
The standard solution of the test product and the test solution are analyzed by HPLC (under the analysis conditions described in Table 34), and the solubility of the test product is calculated from the ratio of peak area compared to the standard solution.
column: Chemcopack Quicksorb (4.6 mmφ×150 mm, 5 μm)
manufactured by Chemco Scientific Co., Ltd.
mobile phase: SOLUTION A; 0.1% TFA water, SOLUTION B;
0.1% TFA acetonitrile solution
column temperature: room temperature
detection wavelength: UV 254 nm, 230 nm (2 wavelength detection)
sample injection volume: 10

formation rate(%) 1 hr later (ERAP1 [3]): 95.1%
formation rate(%) 2 hr later (ERAP1 [3]): 106%
formation rate(%) 4 hr later (ERAP1 [3]): 100%
formation rate(%) 8 hr later (ERAP1 [3]): 101%
Compound: H-CGLYDGMEHL-OH [Example 25]
in vivo CTL induction ability (IFNγ ELISPOT) [4]: has an in vivo CTL induction ability

formation rate of VLQELNVTV (SEQ ID NO: 43) (ERAP1 [5]): 1.1%
Compound: H-GCVLQELNVTV-OH [Example 56]

formation rate of VLQELNVTV (SEQ ID NO: 43) (ERAP1 [5]): 1.3%
Compound: H-SCVLQELNVTV-OH [Example 64]

formation rate of VLQELNVTV (SEQ ID NO: 43) (ERAP1 [5]): 0.7%
Compound: H-YCVLQELNVTV-OH [Example 67]

Continued, compound first:

Compound: CC[C@H](C)[C@H](NC(=O)[C@H](Cc1c[nH]c2ccccc12)NC(=O)[C@H](CCSC)NC(=O)[C@H](CC(C)C)NC(=O)[C@H](CC(C)C)NC(=O)[C@@H](N)CO)C(=O)N[C@H](C(=O)N[C@@H](CCC(N)=O)C(=O)N[C@@H](CSSC[C@H](N)C(=O)NCC(=O)N[C@@H](CC(C)C)C(=O)N[C@@H](Cc1ccc(O)cc1)C(=O)N[C@@H](CC(=O)O)C(=O)NCC(=O)N[C@@H](CCSC)C(=O)N[C@@H](CCC(=O)O)C(=O)N[C@@H](Cc1c[nH]cn1)C(=O)N[C@@H](CC(C)C)C(=O)O)C(=O)O)[C@@H](C)O [Example 109]
solubility at 90 min (physchem; pH 6): 79 µg/mL (≈ 35.4 µM)
solubility at 90 min (physchem; pH 7.4): 700 µg/mL (≈ 314 µM)
induction of CTLs specific to the peptide shown by SEQ ID NO: 19 [1, 6]: can induce CTLs
induction of CTLs specific to the peptide shown by SEQ ID NO: 88 ([1]; splenocytes pulsed with SEQ ID NO: 88, 10 μg/mL): can induce CTLs

Compound: CSCC[C@H](NC(=O)CNC(=O)[C@H](CC(=O)O)NC(=O)[C@H](Cc1ccc(O)cc1)NC(=O)[C@H](CC(C)C)NC(=O)CNC(=O)[C@@H](N)CSSC[C@H](N)C(=O)N[C@H](C(=O)N[C@@H](CC(C)C)C(=O)N[C@@H](CCC(N)=O)C(=O)N[C@@H](CCC(=O)O)C(=O)N[C@@H](CC(C)C)C(=O)N[C@@H](CC(N)=O)C(=O)N[C@H](C(=O)N[C@H](C(=O)N[C@H](C(=O)O)C(C)C)[C@@H](C)O)C(C)C)C(C)C)C(=O)N[C@@H](CCC(=O)O)C(=O)N[C@@H](Cc1c[nH]cn1)C(=O)N[C@@H](CC(C)C)C(=O)O [Example 110] (I: H-CGLYDGMEHL-OH / II: H-CVLQELNVTV-OH; disulfide I:1-II:1)
solubility thermodynamic at 90 min (physchem; pH 6): 511 µg/mL (≈ 227 µM)
solubility thermodynamic at 90 min (physchem; pH 7.4): > 1000 µg/mL
induction of CTLs specific to the peptide shown by SEQ ID NO: 19 [2, 6]: can induce CTLs
induction of CTLs specific to the peptide shown by SEQ ID NO: 43 ([2]; splenocytes pulsed with SEQ ID NO: 43, 10 μg/mL): can induce CTLs

Compound: H-CVLQELNVTV-OH [Example 21]
formation rate(%) 1 hr later (ERAP1 [3]): 83.4%
formation rate(%) 2 hr later (ERAP1 [3]): 85.6%
formation rate(%) 4 hr later (ERAP1 [3]): 78.8%
formation rate(%) 8 hr later (ERAP1 [3]): 83.9%
in vivo CTL induction ability (IFNγ ELISPOT) [4]: has an in vivo CTL induction ability
